In one series the target is T1, wild-type HIV-1 PR (Human immunodeficiency virus type 1 group M subtype B, UniProt P04585).
T1 construct: HIV-1 protease was cloned and heterologously expressed in Escherichia coli and purified; made in house; host or cells: Escherichia coli
The series is described as follows: In vitro HIV-1 PR activity assay (FRET). It counts as biochemical. On the procedure: (§1) The inhibitory effect of all new designed inhibitors were measured using fluorescence resonance energy transfer (FRET) method. […] The energy transfer donor (EDANS) and acceptor (DABCYL) dyes are labeled at two ends of the peptide to perform FRET. Excitation and emission wavelengths were set at 340 nm and 490 nm. Inhibitors were dissolved in dimethylsulfoxide (DMSO) and diluted to appropriate concentrations. HIV-1 protease was cloned and heterologously expressed in Escherichia coli and purified. The experiment was carried out in 96-well plates. The FRET assay reaction buffer contained 0.1 M sodium acetate, 1 M sodium chloride, 1 mM ethylenediaminetetraacetic acid (EDTA), 1 mM dithiothreitol (DTT), 2% DMSO and 1 mg/mL bovine serum albumin (BSA) with an adjusted pH 4.7. Protease and inhibitor were mixed and incubated for 20–30 mins at room temperature and then the substrate was added. Each reaction was recorded for about 10 mins. From plots of concentration versus the calculated percent inhibition, IC50 values were determined.
as §1, with “20-30” for “20–30”, “mins.” for “mins. From plots of concentration versus the calculated percent inhibition, IC50 values were determined.”

Series [1] is described as follows: Cytotoxicity assay (cell counting kit-8). It counts as cell-based. Conditions: human; 293T cells, CCK-8, 24h exposure. On the procedure: Selected inhibitors were further evaluated in cytotoxicity assay using a cell counting kit-8 assay. […] After 24h of culture, 1μL of drugs were added to each well. After another 24h of culture, 10 μL of CCK-8 was added to each well. Absorbance was quantified at wavelength 450 nm using an EnVision multilabel reader (PerkinElmer) after 2h at room temperature.
A general note: Tetrazolium assays rely on reduction of a dye to a coloured formazan, in cell work by metabolically active cells.

Some results are limits rather than exact numbers.

In publication PMC7375528, “Piperidine scaffold as the novel P2-ligands in cyclopropyl-containing HIV-1 protease inhibitors: Structure-based design, synthesis, biological evaluation and docking study” (PLoS ONE, 2020) one finds IC50, melting point and CC50 data, which are given here for 21 molecules.

On to `O=C(CN1CCCCC1)N[C@@H](Cc1ccccc1)[C@H](O)CN(C1CC1)S(=O)(=O)c1ccc(C(F)(F)F)cc1` [27b, N-((2S,3R)-4-((N-cyclopropyl-4-(trifluoromethyl)phenyl)sulfonamido)-3-hydroxy-1-phenylbutan-2-yl)-2-(piperidin-1-yl)acetamide], for which the melting point fell in the range of 72.3 to 75.2 °C. This molecule returned a 50% inhibitory concentration (IC50) at wild-type HIV-1 PR of 52.7 ± 14.7 nM.
In turn, `O=C(N[C@@H](Cc1ccccc1)[C@H](O)CN(C1CC1)S(=O)(=O)c1ccc(C(F)(F)F)cc1)[C@@H]1CCCNC1` [22b, (R)-N-((2S,3R)-4-((N-cyclopropyl-4-(trifluoromethyl)phenyl)sulfonamido)-3-hydroxy-1-phenylbutan-2-yl)piperidine-3-carboxamide] gave a melting point of 204.8 to 206.3 °C. This molecule also displayed an IC50 on wild-type HIV-1 PR of 8.35 ± 5.58 nM. The CC50 at 24 h in series [1] is greater than 100000 nM.
In turn, `COc1ccc(S(=O)(=O)N(C[C@@H](O)[C@H](Cc2ccccc2)NC(=O)C2CCNCC2)C2CC2)cc1` [26a, N-((2S,3R)-4-((N-cyclopropyl-4-methoxyphenyl)sulfonamido)-3-hydroxy-1-phenylbutan-2-yl)piperidine-4-carboxamide] came in with a melting point of 219.9 to 221.3 °C. This molecule also returned an IC50 against wild-type HIV-1 PR of 155 ± 15.1 nM.
Taken in the same sequence, the figures for `COc1ccc(S(=O)(=O)N(C[C@@H](O)[C@H](Cc2ccccc2)NC(=O)[C@H]2CCCN(C)C2)C2CC2)cc1` [25a, (S)-N-((2S,3R)-4-((N-cyclopropyl-4-methoxyphenyl)sulfonamido)-3-hydroxy-1-phenylbutan-2-yl)-1-methylpiperidine-3-carboxamide] were 88.9 to 91.2 °C and 283 ± 36.4 nM.
Taken in the same sequence, the figures for `O=C(N[C@@H](Cc1ccccc1)[C@H](O)CN(C1CC1)S(=O)(=O)c1ccc(C(F)(F)F)cc1)[C@H]1CCCNC1` [23b, (S)-N-((2S,3R)-4-((N-cyclopropyl-4-(trifluoromethyl)phenyl)sulfonamido)-3-hydroxy-1-phenylbutan-2-yl)piperidine-3-carboxamide] were 236.5 to 238.4 °C and 264 ± 69.1 nM.
Taken in the same sequence, the figures for `O=C(N[C@@H](Cc1ccccc1)[C@H](O)CN(C1CC1)S(=O)(=O)c1ccc([N+](=O)[O-])cc1)C1CCNCC1` [26c, N-((2S,3R)-4-((N-cyclopropyl-4-nitrophenyl)sulfonamido)-3-hydroxy-1-phenylbutan-2-yl)piperidine-4-carboxamide] were 186.2 to 187.7 °C and 268 ± 37.8 nM.
In turn, `Nc1ccc(S(=O)(=O)N(C[C@@H](O)[C@H](Cc2ccccc2)NC(=O)[C@@H]2CCCNC2)C2CC2)cc1` [22d, (R)-N-((2S,3R)-4-((4-amino-N-cyclopropylphenyl)sulfonamido)-3-hydroxy-1-phenylbutan-2-yl)piperidine-3-carboxamide] yielded a melting point of 216.5 to 218.3 °C. The molecule further came in with an IC50 against wild-type HIV-1 PR of 10.1 ± 6.71 nM. The same molecule yielded a CC50 at 24 h in series [1] greater than 100000 nM.
`COc1ccc(S(=O)(=O)N(C[C@@H](O)[C@H](Cc2ccccc2)NC(=O)CN2CCCCC2)C2CC2)cc1` [27a, N-((2S,3R)-4-((N-cyclopropyl-4-methoxyphenyl)sulfonamido)-3-hydroxy-1-phenylbutan-2-yl)-2-(piperidin-1-yl)acetamide] gave a melting point of 63.6 to 65.8 °C. Further, at wild-type HIV-1 PR, half-maximal inhibition (IC50) was put at 228 ± 45 nM.
`O=C(N[C@@H](Cc1ccccc1)[C@H](O)CN(C1CC1)S(=O)(=O)c1ccc(C(F)(F)F)cc1)C1CCNCC1` [26b, N-((2S,3R)-4-((N-cyclopropyl-4-(trifluoromethyl)phenyl)sulfonamido)-3-hydroxy-1-phenylbutan-2-yl)piperidine-4-carboxamide] displayed a melting point of 243.3 to 245.1 °C. At wild-type HIV-1 PR, this molecule registered an IC50 of 124 ± 27.6 nM.
Taken in the same sequence, the figures for `Nc1ccc(S(=O)(=O)N(C[C@@H](O)[C@H](Cc2ccccc2)NC(=O)C2CCNCC2)C2CC2)cc1` [26d, N-((2S,3R)-4-((4-amino-N-cyclopropylphenyl)sulfonamido)-3-hydroxy-1-phenylbutan-2-yl)piperidine-4-carboxamide] were 204.7 to 206.5 °C and 245 ± 39.8 nM.
`CN1CCC[C@@H](C(=O)N[C@@H](Cc2ccccc2)[C@H](O)CN(C2CC2)S(=O)(=O)c2ccc(N)cc2)C1` [24d, (R)-N-((2S,3R)-4-((4-amino-N-cyclopropylphenyl)sulfonamido)-3-hydroxy-1-phenylbutan-2-yl)-1-methylpiperidine-3-carboxamide] showed a melting point of 75.8 to 77.3 °C. The midpoint of inhibition at wild-type HIV-1 PR, the IC50, lay at 16.3 ± 9.54 nM. Further, the CC50 at 24 h in series [1] is greater than 100000 nM.
Take `Nc1ccc(S(=O)(=O)N(C[C@@H](O)[C@H](Cc2ccccc2)NC(=O)CN2CCCCC2)C2CC2)cc1` [27d, N-((2S,3R)-4-((4-amino-N-cyclopropylphenyl)sulfonamido)-3-hydroxy-1-phenylbutan-2-yl)-2-(piperidin-1-yl)acetamide]: the melting point was 144.4 to 146.2 °C. Besides, the IC50 at wild-type HIV-1 PR is 34.7 ± 12.5 nM.
Taken in the same sequence, the figures for `CN1CCC[C@H](C(=O)N[C@@H](Cc2ccccc2)[C@H](O)CN(C2CC2)S(=O)(=O)c2ccc(N)cc2)C1` [25d, (S)-N-((2S,3R)-4-((4-amino-N-cyclopropylphenyl)sulfonamido)-3-hydroxy-1-phenylbutan-2-yl)-1-methylpiperidine-3-carboxamide] were 76.8 to 78.5 °C and 236 ± 36.5 nM.
On the same counts, the results for `CN1CCC[C@@H](C(=O)N[C@@H](Cc2ccccc2)[C@H](O)CN(C2CC2)S(=O)(=O)c2ccc([N+](=O)[O-])cc2)C1` [24c, (R)-N-((2S,3R)-4-((N-cyclopropyl-4-nitrophenyl)sulfonamido)-3-hydroxy-1-phenylbutan-2-yl)-1-methylpiperidine-3-carboxamide] are 159.9 to 161.2 °C and 39.5 ± 11.9 nM.
On the same counts, the results for `COc1ccc(S(=O)(=O)N(C[C@@H](O)[C@H](Cc2ccccc2)NC(=O)[C@H]2CCCNC2)C2CC2)cc1` [23a, (S)-N-((2S,3R)-4-((N-cyclopropyl-4-methoxyphenyl)sulfonamido)-3-hydroxy-1-phenylbutan-2-yl)piperidine-3-carboxamide] are 92.9 to 94.7 °C and 433 ± 97.5 nM.
In the case of `O=C(CN1CCCCC1)N[C@@H](Cc1ccccc1)[C@H](O)CN(C1CC1)S(=O)(=O)c1ccc([N+](=O)[O-])cc1` [27c, N-((2S,3R)-4-((N-cyclopropyl-4-nitrophenyl)sulfonamido)-3-hydroxy-1-phenylbutan-2-yl)-2-(piperidin-1-yl)acetamide], the melting point fell in the range of 82.9 to 84.1 °C. On wild-type HIV-1 PR, this molecule returned an IC50 of 288 ± 62 nM.
Molecule `CN1CCC[C@H](C(=O)N[C@@H](Cc2ccccc2)[C@H](O)CN(C2CC2)S(=O)(=O)c2ccc(C(F)(F)F)cc2)C1` [25b, (S)-N-((2S,3R)-4-((N-cyclopropyl-4-(trifluoromethyl)phenyl)sulfonamido)-3-hydroxy-1-phenylbutan-2-yl)-1-methylpiperidine-3-carboxamide] registered a melting point of 102.7 to 104.6 °C. This molecule also yielded an IC50 against wild-type HIV-1 PR of 110 ± 27.2 nM.
Molecule `O=C(N[C@@H](Cc1ccccc1)[C@H](O)CN(C1CC1)S(=O)(=O)c1ccc([N+](=O)[O-])cc1)[C@@H]1CCCNC1` [22c, (R)-N-((2S,3R)-4-((N-cyclopropyl-4-nitrophenyl)sulfonamido)-3-hydroxy-1-phenylbutan-2-yl)piperidine-3-carboxamide] had a melting point of 196.8 to 198.4 °C. At wild-type HIV-1 PR, this molecule gave a half-maximal inhibitory concentration (IC50) of 17 ± 8.12 nM. Further, the 50% cytotoxic concentration (CC50) at 24 h in series [1] was greater than 100000 nM.
In turn, `Nc1ccc(S(=O)(=O)N(C[C@@H](O)[C@H](Cc2ccccc2)NC(=O)[C@H]2CCCNC2)C2CC2)cc1` [23d, (S)-N-((2S,3R)-4-((4-amino-N-cyclopropylphenyl)sulfonamido)-3-hydroxy-1-phenylbutan-2-yl)piperidine-3-carboxamide] gave a melting point of 77.8 to 79.4 °C. In addition, the 50% inhibitory concentration (IC50) at wild-type HIV-1 PR is 313 ± 58.1 nM.
Consider `O=C(N[C@@H](Cc1ccccc1)[C@H](O)CN(C1CC1)S(=O)(=O)c1ccc([N+](=O)[O-])cc1)[C@H]1CCCNC1` [23c, (S)-N-((2S,3R)-4-((N-cyclopropyl-4-nitrophenyl)sulfonamido)-3-hydroxy-1-phenylbutan-2-yl)piperidine-3-carboxamide], for which the melting point is 155.9 to 157.2 °C. Besides, the half-maximal inhibitory concentration (IC50) at wild-type HIV-1 PR worked out at 483 ± 103 nM.
On the same counts, the results for `CN1CCC[C@H](C(=O)N[C@@H](Cc2ccccc2)[C@H](O)CN(C2CC2)S(=O)(=O)c2ccc([N+](=O)[O-])cc2)C1` [25c, (S)-N-((2S,3R)-4-((N-cyclopropyl-4-nitrophenyl)sulfonamido)-3-hydroxy-1-phenylbutan-2-yl)-1-methylpiperidine-3-carboxamide] are 133.2 to 134.8 °C and 523 ± 104 nM.

Usually IC50 stands for the midpoint of a concentration-inhibition curve. Read a high IC50 as lower potency. Usually melting point stands for the temperature of the solid-liquid transition. The CC50 is the concentration at which the toxic effect on the cells reaches its halfway point. Read a high CC50 as better tolerance by the cells.
